# Patent US20110039834A1, “NOVEL PHARMACEUTICAL COMPOSITIONS FOR OPTIMIZING SUBSTITUTION TREATMENTS AND EXTENDING THE PHARMACOPOEIA TO GLOBAL TREATMENT OF ADDICTIONS” (TRIMARAN LIMITED, priority 2006, published 2011)
# What was measured:
# male mice of OF1 strain [1] = assay: Behavioral sensitization to morphine (locomotor activity on D15 after morphine injection); format: in vivo
# Procedure: The locomotor activity is influenced by a wide diversity of factors.
# The experimental protocol used may be described in the following manner:
# Dose of amisulpride (AMS): 0.5 mg/kg Dose of buprenorphine (Bup): 0.1 mg/kg
# The animals received from D1 to D7 either morphine or physiological saline, from Day D8 to D14 either physiological saline, or buprenorphine, amisulpride, buprenorphine and amisulpride according to the scheme:
# male mice of OF1 strain [2] = assay: Measurement of locomotor activity: determination of the doses of amisulpride; format: in vivo
# Procedure: The animals used in this study are male mice of OF1 strain weighing about 20 g at the start of the experiments (Charles River, France). They live in an environment whose daily lighting cycle (07:30h; 17:30h) is constant throughout the year, and the temperature is maintained at about 22° C. The mice have free access to water and food, and the experiments are performed in accordance with the international rules on ethics in animal experimentation.
# The mice are placed individually in a sound-insulated plastic cage ([…]) and are exposed to a light intensity of 5 lux. The animals' movements are captured by photoelectric cells for 60 minutes and recorded by computer. The experiment starts immediately after injection of the product. In this study, the term “locomotor activity” takes into account only the horizontal movements of the animals.
# A one-factor (treatment) analysis of variance (ANOVA) is used for all the behavioral tests performed, followed by a Student-Newman-Keuls test if p<0.05 in the ANOVA. In all the cases, the significance is accepted once p<0.05.
# A molecule endowed with dopaminergic antagonist activity reduces locomotor activity. It is this property that is exploited in order to determine the dose after which amisulpride has dopaminergic antagonist activity in mice (i.e. an effect on the D2 and D3 post-synaptic receptors, and not on the D2 and D3 auto-receptors). […]
SMILES,"behavioral sensitization on D15 relative to animals chronically treated with saline (male mice of OF1 strain [1]; mice chronically treated D1 to D7, locomotor activity on D15 after morphine 10 mg/kg)","reduction of the behavioral sensitization to morphine (male mice of OF1 strain [1]; morphine D1 to D7, treatment between D8 and D14 (amisulpride 0.5 mg/kg, buprenorphine 0.1 mg/kg), morphine 10 mg/kg on D15)",effect on locomotor activity at low dose (male mice of OF1 strain [2]; 0.5 mg/kg),"dose at and above which the decrease in locomotor activity is significant (male mice of OF1 strain [2]; doses tested 0.5, 2, 10, 20 and 50 mg/kg, horizontal movements over 60 minutes) [mg/kg]"
CN1CC[C@]23c4c5ccc(O)c4O[C@H]2[C@@H](O)C=C[C@H]3[C@H]1C5 [morphine],show behavioral sensitization,,,
CCN1CCCC1CNC(=O)c1cc(S(=O)(=O)CC)c(N)cc1OC (stereo not shown) [amisulpride],,does not make it possible to reduce this behavioral sensitization,locomotor hyperactivity is observed,≥ 10
